In the NIST ThermoML archive (doi:10.1021/acs.jced.9b00607):
± gives the expanded uncertainty stated by the source.

How the values were obtained:
[1] = 102 kPa, Liquid; for viscosity: Falling or rolling sphere viscometry; for mass density: Vibrating tube method
[2] = wn = mass fraction of the nth substance listed; conditions: 102 kPa, Liquid, w2 = 0; for viscosity: Falling or rolling sphere viscometry; for mass density: Vibrating tube method

Compound | viscosity ([1]; 283.15 K) | mass density ([1]; 283.15 K) | viscosity ([1]; 298.15 K) | mass density ([1]; 298.15 K) | viscosity ([1]; 313.15 K) | mass density ([1]; 313.15 K) | viscosity ([1]; 323.15 K) | mass density ([1]; 323.15 K) | viscosity ([1]; 333.15 K) | mass density ([1]; 333.15 K) | viscosity ([1]; 343.15 K) | mass density ([1]; 343.15 K) | viscosity ([1]; 353.15 K) | mass density ([1]; 353.15 K) | also measured
CN(CCO)CCO [N-methyldiethanolamine] | 198.15 ± 9.4 mPa·s | 1048 ± 0.3 kg/m3 | 74.87 ± 1.5 mPa·s | 1036.8 ± 0.3 kg/m3 | 35.05 ± 1.1 mPa·s | 1025.3 ± 0.3 kg/m3 | 21.96 ± 0.43 mPa·s | 1017.7 ± 0.2 kg/m3 | 14.83 ± 0.49 mPa·s | 1010 ± 0.2 kg/m3 | 10.29 ± 0.54 mPa·s | 1002.2 ± 0.2 kg/m3 | 7.4 ± 0.32 mPa·s | 994.5 ± 0.2 kg/m3 | –
OCCO [1,2-ethanediol] | 34.07 ± 4.1 mPa·s | 1120 ± 0.2 kg/m3 | 17.27 ± 1.1 mPa·s | – | 9.69 ± 1.1 mPa·s | 1099.1 ± 0.3 kg/m3 | 6.81 ± 0.36 mPa·s | 1091.6 ± 0.1 kg/m3 | 5.28 ± 0.47 mPa·s | 1085 ± 0.1 kg/m3 | 4.06 ± 0.46 mPa·s | 1077.6 ± 0.1 kg/m3 | 3.21 ± 0.31 mPa·s | 1070.1 ± 0.1 kg/m3 | –
O [water] | 1.32 ± 0.01 mPa·s | 999.9 ± 0.1 kg/m3 | 0.91 ± 0.01 mPa·s | 997.2 ± 0.1 kg/m3 | 0.67 ± 0.01 mPa·s | 992.3 ± 0.1 kg/m3 | 0.57 ± 0.01 mPa·s | 988.3 ± 0.1 kg/m3 | – | 983.5 ± 0.1 kg/m3 | – | 978.1 ± 0.1 kg/m3 | – | 972.3 ± 0.1 kg/m3 | –
OCCO [1,2-ethanediol] + CN(CCO)CCO | – | – | – | – | – | – | – | – | – | – | – | – | – | – | viscosity ([2]; 283.15 K): 34.07 ± 4.1 mPa·s; mass density ([2]; 283.15 K): 1120 ± 0.2 kg/m3; viscosity ([2]; 298.15 K): 17.27 ± 1.1 mPa·s; viscosity ([2]; 313.15 K): 9.69 ± 1.1 mPa·s; mass density ([2]; 313.15 K): 1099.1 ± 0.3 kg/m3; viscosity ([2]; 323.15 K): 6.81 ± 0.36 mPa·s; mass density ([2]; 323.15 K): 1091.6 ± 0.1 kg/m3; viscosity ([2]; 333.15 K): 5.28 ± 0.47 mPa·s; mass density ([2]; 333.15 K): 1085 ± 0.1 kg/m3; viscosity ([2]; 343.15 K): 4.06 ± 0.46 mPa·s; mass density ([2]; 343.15 K): 1077.6 ± 0.1 kg/m3; viscosity ([2]; 353.15 K): 3.21 ± 0.31 mPa·s; mass density ([2]; 353.15 K): 1070.1 ± 0.1 kg/m3
